Source: BindingDB's records for doi:10.1124/jpet.103.062398 (Institut De Recherches Servier, 2004)
“And” between values parts separate entries of the source, which are not always exact repeats. Equal entries are not always repeated.

Key:
[1] = target: 5-hydroxytryptamine receptor 3A (Mus musculus, UniProt P23979)
[2] = target: 5-hydroxytryptamine receptor 5A (Homo sapiens, UniProt P47898)
[3] = target: 5-hydroxytryptamine receptor 4 (Cavia porcellus, UniProt O70528)
[4] = target: 5-hydroxytryptamine receptor 7 (Homo sapiens, UniProt P34969)
Sequence of 5-hydroxytryptamine receptor 7 (P34969 whole entry): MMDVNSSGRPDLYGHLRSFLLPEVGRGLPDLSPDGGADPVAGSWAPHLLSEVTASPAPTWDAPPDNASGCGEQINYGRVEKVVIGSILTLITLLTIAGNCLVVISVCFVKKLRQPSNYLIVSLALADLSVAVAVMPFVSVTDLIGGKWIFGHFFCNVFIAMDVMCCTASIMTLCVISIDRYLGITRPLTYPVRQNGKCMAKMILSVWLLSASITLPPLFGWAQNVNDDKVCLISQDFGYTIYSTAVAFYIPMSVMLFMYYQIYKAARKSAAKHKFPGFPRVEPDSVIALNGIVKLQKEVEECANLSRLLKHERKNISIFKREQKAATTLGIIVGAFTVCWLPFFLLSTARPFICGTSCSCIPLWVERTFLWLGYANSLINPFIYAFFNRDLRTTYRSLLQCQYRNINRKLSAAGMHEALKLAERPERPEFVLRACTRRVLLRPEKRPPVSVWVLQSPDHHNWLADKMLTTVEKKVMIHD

[5] = target: 5-hydroxytryptamine receptor 6 (Homo sapiens, UniProt P50406)
Sequence of 5-hydroxytryptamine receptor 6 (P50406 whole entry): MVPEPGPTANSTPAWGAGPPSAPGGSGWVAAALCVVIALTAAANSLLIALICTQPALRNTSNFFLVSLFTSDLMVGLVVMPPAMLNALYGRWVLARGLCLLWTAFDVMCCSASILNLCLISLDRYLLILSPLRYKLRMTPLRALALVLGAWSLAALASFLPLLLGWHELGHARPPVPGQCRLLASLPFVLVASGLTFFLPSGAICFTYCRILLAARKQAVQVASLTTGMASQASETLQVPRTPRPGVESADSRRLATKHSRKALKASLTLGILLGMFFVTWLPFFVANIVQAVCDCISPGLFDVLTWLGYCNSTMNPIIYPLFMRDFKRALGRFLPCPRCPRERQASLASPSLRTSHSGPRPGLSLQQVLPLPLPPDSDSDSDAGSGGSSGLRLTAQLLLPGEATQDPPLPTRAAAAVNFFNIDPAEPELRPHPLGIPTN

[6] = target: Alpha-1A adrenergic receptor (Rattus norvegicus, UniProt P43140)
Sequence of Alpha-1A adrenergic receptor (Rattus norvegicus, UniProt P43140) (P43140 whole entry): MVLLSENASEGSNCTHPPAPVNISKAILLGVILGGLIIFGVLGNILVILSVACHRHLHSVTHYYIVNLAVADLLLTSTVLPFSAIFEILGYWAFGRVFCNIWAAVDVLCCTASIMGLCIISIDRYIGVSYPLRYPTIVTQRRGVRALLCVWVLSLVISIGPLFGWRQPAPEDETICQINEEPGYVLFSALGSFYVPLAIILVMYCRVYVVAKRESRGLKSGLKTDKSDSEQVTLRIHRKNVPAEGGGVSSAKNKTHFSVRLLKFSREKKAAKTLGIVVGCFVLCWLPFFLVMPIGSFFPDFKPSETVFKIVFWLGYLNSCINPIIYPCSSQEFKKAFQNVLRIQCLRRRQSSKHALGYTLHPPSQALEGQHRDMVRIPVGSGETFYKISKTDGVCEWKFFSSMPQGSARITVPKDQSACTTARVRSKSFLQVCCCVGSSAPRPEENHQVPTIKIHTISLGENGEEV

[7] = target: D(2) dopamine receptor (Rattus norvegicus, UniProt P61169)
Sequence of D(2) dopamine receptor (Rattus norvegicus, UniProt P61169) (P61169 whole entry): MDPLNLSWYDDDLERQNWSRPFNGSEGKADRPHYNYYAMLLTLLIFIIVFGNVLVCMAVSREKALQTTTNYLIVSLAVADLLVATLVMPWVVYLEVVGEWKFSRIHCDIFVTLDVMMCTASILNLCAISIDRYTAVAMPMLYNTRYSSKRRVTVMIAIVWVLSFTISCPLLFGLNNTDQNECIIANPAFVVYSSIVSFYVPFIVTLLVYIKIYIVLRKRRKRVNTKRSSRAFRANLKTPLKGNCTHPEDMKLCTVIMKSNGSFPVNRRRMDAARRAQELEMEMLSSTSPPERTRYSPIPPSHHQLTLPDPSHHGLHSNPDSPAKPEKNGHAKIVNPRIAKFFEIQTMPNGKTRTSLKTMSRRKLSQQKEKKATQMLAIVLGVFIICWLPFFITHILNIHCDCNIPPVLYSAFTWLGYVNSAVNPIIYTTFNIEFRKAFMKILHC

[8] = target: D(4) dopamine receptor (Homo sapiens, UniProt P21917)
[9] = target: D(2) dopamine receptor (Homo sapiens, UniProt P14416)
Sequence of D(2) dopamine receptor (Homo sapiens, UniProt P14416) (P14416 whole entry): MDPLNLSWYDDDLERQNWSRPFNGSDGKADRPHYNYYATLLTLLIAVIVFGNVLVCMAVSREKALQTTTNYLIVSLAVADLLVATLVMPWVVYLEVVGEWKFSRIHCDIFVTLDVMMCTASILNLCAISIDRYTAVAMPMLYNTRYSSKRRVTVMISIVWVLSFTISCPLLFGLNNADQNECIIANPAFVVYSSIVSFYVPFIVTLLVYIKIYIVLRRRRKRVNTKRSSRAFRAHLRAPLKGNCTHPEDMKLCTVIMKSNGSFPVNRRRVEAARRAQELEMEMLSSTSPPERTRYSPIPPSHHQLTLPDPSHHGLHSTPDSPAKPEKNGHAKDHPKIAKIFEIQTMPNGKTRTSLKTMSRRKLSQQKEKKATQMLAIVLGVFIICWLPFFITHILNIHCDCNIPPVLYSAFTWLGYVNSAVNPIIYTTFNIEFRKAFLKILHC

[10] = target: D(3) dopamine receptor (Homo sapiens, UniProt P35462)
Sequence of D(3) dopamine receptor (P35462 as listed by the source): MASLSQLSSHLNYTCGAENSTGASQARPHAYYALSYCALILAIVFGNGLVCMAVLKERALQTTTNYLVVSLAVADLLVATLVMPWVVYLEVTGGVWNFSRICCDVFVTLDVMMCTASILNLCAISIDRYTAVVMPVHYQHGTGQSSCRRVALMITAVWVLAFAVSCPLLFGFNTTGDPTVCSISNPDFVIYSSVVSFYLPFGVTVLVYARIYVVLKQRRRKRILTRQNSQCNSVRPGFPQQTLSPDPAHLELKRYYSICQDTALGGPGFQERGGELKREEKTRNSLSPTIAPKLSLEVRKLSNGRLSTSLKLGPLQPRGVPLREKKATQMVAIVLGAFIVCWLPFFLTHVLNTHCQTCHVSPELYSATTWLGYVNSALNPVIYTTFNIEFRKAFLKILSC

[11] = target: 5-hydroxytryptamine receptor 2A (Homo sapiens, UniProt P28223)
[12] = target: 5-hydroxytryptamine receptor 2B (Homo sapiens, UniProt P41595)
[13] = target: Alpha-2B adrenergic receptor (Homo sapiens, UniProt P18089)
[14] = target: 5-hydroxytryptamine receptor 1B (Homo sapiens, UniProt P28222)
[15] = target: 5-hydroxytryptamine receptor 1D (Homo sapiens, UniProt P28221)
Sequence of 5-hydroxytryptamine receptor 1D (P28221 whole entry): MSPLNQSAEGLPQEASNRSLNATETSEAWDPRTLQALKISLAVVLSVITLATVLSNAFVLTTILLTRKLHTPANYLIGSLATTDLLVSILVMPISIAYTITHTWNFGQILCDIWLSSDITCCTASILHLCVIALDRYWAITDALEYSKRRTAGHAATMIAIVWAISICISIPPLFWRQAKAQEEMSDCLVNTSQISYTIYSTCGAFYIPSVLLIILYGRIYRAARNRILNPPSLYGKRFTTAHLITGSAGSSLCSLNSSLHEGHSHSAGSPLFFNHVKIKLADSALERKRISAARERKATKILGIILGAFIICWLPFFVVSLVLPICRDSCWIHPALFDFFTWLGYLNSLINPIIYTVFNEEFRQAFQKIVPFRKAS

[16] = target: Alpha-1D adrenergic receptor (Homo sapiens, UniProt P25100)
[17] = target: Alpha-1B adrenergic receptor (Homo sapiens, UniProt P35368)
[18] = target: Alpha-2A adrenergic receptor (Homo sapiens, UniProt P08913)
Sequence of Alpha-2A adrenergic receptor (P08913 whole entry): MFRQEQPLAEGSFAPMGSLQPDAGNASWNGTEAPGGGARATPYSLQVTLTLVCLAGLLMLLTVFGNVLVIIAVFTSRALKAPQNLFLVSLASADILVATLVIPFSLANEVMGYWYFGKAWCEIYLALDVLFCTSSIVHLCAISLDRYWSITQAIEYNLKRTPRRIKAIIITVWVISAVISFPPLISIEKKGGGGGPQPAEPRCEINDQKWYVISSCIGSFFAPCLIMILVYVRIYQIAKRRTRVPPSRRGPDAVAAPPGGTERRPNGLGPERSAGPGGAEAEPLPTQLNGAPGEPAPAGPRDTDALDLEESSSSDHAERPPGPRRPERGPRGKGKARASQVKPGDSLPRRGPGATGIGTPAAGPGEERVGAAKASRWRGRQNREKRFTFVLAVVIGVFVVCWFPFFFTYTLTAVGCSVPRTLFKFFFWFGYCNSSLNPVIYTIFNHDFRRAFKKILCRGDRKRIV

[19] = target: T1, Alpha-2A adrenergic receptor [16-465] (Rattus norvegicus, UniProt P22909)
T1 construct: 16-465

[20] = target: 5-hydroxytryptamine receptor 1A (Homo sapiens, UniProt P08908)
[21] = target: Alpha-2C adrenergic receptor (Homo sapiens, UniProt P18825)
[22] = target: 5-hydroxytryptamine receptor 2C (Homo sapiens, UniProt P28335)
[23] = target: Alpha-1A adrenergic receptor (Homo sapiens, UniProt P35348)

Sequence of 5-hydroxytryptamine receptor 5A (P47898 whole entry): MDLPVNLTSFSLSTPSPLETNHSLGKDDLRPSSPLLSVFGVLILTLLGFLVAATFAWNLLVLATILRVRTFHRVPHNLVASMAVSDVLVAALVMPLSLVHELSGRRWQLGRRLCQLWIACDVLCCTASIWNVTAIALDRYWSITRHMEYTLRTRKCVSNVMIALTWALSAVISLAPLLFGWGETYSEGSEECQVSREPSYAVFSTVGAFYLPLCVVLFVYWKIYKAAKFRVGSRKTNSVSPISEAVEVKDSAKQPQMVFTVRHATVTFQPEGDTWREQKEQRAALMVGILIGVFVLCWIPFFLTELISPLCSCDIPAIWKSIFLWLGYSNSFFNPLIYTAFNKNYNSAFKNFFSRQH
Sequence of 5-hydroxytryptamine receptor 4 (O70528 whole entry): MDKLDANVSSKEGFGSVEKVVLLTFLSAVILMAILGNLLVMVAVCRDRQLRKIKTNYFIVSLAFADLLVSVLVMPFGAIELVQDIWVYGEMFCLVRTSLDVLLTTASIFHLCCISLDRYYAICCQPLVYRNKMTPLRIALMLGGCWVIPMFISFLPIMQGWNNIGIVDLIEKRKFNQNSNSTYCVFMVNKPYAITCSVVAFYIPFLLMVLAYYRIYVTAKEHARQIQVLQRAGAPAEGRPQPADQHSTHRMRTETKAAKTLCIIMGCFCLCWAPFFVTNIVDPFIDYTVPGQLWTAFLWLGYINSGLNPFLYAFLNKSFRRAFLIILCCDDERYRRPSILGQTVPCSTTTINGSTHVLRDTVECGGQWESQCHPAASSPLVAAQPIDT
Sequence of 5-hydroxytryptamine receptor 3A (P23979 as listed by the source): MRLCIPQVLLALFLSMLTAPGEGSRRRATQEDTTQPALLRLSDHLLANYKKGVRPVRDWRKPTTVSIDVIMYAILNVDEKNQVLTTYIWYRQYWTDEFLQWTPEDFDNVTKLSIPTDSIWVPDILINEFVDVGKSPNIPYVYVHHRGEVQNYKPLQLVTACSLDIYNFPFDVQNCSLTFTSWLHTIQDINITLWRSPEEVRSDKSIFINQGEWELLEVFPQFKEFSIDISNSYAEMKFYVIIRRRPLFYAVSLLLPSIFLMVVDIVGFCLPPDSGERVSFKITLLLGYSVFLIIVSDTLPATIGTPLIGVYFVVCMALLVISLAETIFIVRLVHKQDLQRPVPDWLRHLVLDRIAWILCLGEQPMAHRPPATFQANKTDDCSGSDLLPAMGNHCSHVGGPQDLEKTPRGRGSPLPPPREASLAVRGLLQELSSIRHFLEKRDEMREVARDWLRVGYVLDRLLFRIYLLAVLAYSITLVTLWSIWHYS

| Ki [9] | Ki [10] [nM] | Compound | Ki [1] [nM] | Ki [2] [nM] | Ki [3] [nM] | Ki [4] [nM] | Ki [5] [nM] | Ki [6] [nM] | Ki [7] [nM] | other results |
| --- | --- | --- | --- | --- | --- | --- | --- | --- | --- | --- |
|  |  | CCCN(CCC)CCc1cccc2c1CC(=O)N2 | > 10000 | > 10000 | > 10000 | 1510 | > 10000 | > 10000 | 1150 |  |
| 513 nM and 355 nM | 8.91 | CCCN1CCO[C@@H]2c3cc(C(N)=O)ccc3CC[C@H]21 [S32504 (+)] |  |  |  |  |  |  | 457 | Ki [8]: 5130 nM |
|  | 8.91 | CCCN1CCOC2c3cc(C(N)=O)ccc3CCC21 (stereo not drawn) [S32504] | > 10000 | > 10000 | > 10000 | 661 | > 10000 | > 10000 |  | Ki [11]: 5250 nM; Ki [12]: 4570 nM; Ki [13]: 1660 nM; Ki [14]: > 10000 nM; Ki [15]: 263 nM; Ki [16]: > 10000 nM; Ki [17]: > 10000 nM; Ki [18]: 8130 nM; Ki [19]: > 10000 nM; Ki [20]: 257 nM; Ki [21]: > 10000 nM; Ki [22]: > 10000 nM; Ki [23]: > 10000 nM |
| 29.5 nM | 0.26 | N#Cc1ccc2c(c1)[C@H]1CN(CCCCNC(=O)c3ccc(-c4ccccc4)cc3)C[C@@H]1CO2 [S33084] |  |  |  |  |  |  |  |  |
